Data published in US20180002288A1, “USE OF PICOLINAMIDES AS FUNGICIDES” (DOW AGROSCIENCES LLC, priority 2014, published 2018).
Like-named read-outs stand apart in the source and are kept apart here.

Legend:
Zymoseptoria tritici = test: Leaf Blotch of Wheat fungicidal activity (SEPTTR); assay type: in vivo; details: for pest or weed control at 121.5 g/ha: Low Volume Cereal Activity at 121.5 g/Ha; for pest or weed control at 100 ppm: wheat, high volume
Description: (§1) All fungicides were evaluated using the aforementioned method for their activity vs. all target diseases, unless stated otherwise. Wheat leaf blotch and brown rust activity were also evaluated using track spray applications, in which case the fungicides were formulated as EC formulations, containing 0.1% Trycol 5941 in the spray solutions. Wheat plants (variety Yuma) were grown from seed in a greenhouse in 50% mineral soil/50% soil-less Metro mix until the first leaf was fully emerged, with 7-10 seedlings per pot. These plants were inoculated with an aqueous spore suspension of Zymoseptoria tritici either prior to or after fungicide treatments. After inoculation the plants were kept in 100% relative humidity (one day in a dark dew chamber followed by two to three days in a lighted dew chamber at 20° C.) to permit spores to germinate and infect the leaf. The plants were then transferred to a greenhouse set at 20° C. for disease to develop. When disease symptoms were fully expressed on the 1st leaves of untreated plants, infection levels were assessed on a scale of 0 to 100 percent disease severity. Percent disease control was calculated using the ratio of disease severity on treated plants relative to untreated plants.

Puccinia triticina = test: Wheat Brown Rust fungicidal activity (PUCCRT); assay type: in vivo; details: for pest or weed control at 121.5 g/ha: Low Volume Cereal Activity at 121.5 g/Ha; for pest or weed control at 100 ppm: wheat, high volume
Description: as §1, with “plants. Wheat plants (variety Yuma) were grown from seed in a greenhouse in 50% mineral soil/50% soil-less Metro mix until the first leaf was fully emerged, with 7-10 seedlings per pot. These plants were inoculated with an aqueous spore suspension of Puccinia triticina either prior to or after fungicide treatments. […] The plants were then transferred to a greenhouse set at 24° C. for disease to develop. Fungicide formulation, application and disease assessment followed the procedures as described in the Example A.” for “plants.”

[1] = 24 h, 1 Day Protectant, read-out: SEPTTR 1DP (Wheat Leaf Blotch, 1 Day Protectant)
[2] = 72 h, 3 Day Curative, read-out: SEPTTR 3DC (Wheat Leaf Blotch, 3 Day Curative)
[3] = 24 h, 1 Day Protectant, read-out: PUCCRT 1DP (Wheat Brown Rust, 1 Day Protectant)
[4] = 72 h, 3 Day Curative, read-out: PUCCRT 3DC (Wheat Brown Rust, 3 Day Curative)
[5] = 24 h, 1 Day Protectant, read-out: SEPTTR 1DP % Control rating
[6] = 72 h, 3 Day Curative, read-out: SEPTTR 3DC % Control rating
[7] = 24 h, 1 Day Protectant, read-out: PUCCRT 1DP % Control rating
[8] = 72 h, 3 Day Curative, read-out: PUCCRT 3DC % Control rating

| SMILES | pest or weed control at 121.5 g/ha (Zymoseptoria tritici; [1]) [%] | pest or weed control at 121.5 g/ha (Zymoseptoria tritici; [2]) [%] | pest or weed control at 121.5 g/ha (Puccinia triticina; [3]) [%] | pest or weed control at 121.5 g/ha (Puccinia triticina; [4]) [%] | pest or weed control at 100 ppm (Zymoseptoria tritici; [5]) [%] | pest or weed control at 100 ppm (Zymoseptoria tritici; [6]) [%] | pest or weed control at 100 ppm (Puccinia triticina; [7]) [%] | pest or weed control at 100 ppm (Puccinia triticina; [8]) [%] |
| --- | --- | --- | --- | --- | --- | --- | --- | --- |
| COc1ccnc(C(=O)N[C@@H](C)C(=O)O[C@@H](C)[C@H](Oc2ccc(C(F)(F)F)cc2)c2ccccc2)c1OCOC(C)=O [Example 195] | > 80 | > 80 | > 80 | < 80 | – | – | – | – |
| COc1ccnc(C(=O)N[C@@H](C)C(=O)O[C@@H](C)[C@H](Oc2cc(F)ccc2F)c2ccccc2)c1O [Example 121] | – | – | – | – | < 80 | > 80 | > 80 | < 80 |
| COc1ccnc(C(=O)N[C@@H](C)C(=O)O[C@@H](C)[C@H](Oc2ccccc2)c2cccc(-c3ccccc3)c2)c1OCOC(C)=O [Example 240] | > 80 | > 80 | > 80 | < 80 | – | – | – | – |
| COc1ccnc(C(=O)N[C@@H](C)C(=O)O[C@@H](C)[C@H](Oc2ccc(F)cc2)c2ccc(F)cc2)c1OCOC(C)=O [Example 254] | > 80 | > 80 | > 80 | > 80 | – | – | – | – |
| C=CCOc1cc(F)ccc1[C@@H](Oc1ccccc1)[C@H](C)OC(=O)[C@H](C)NC(=O)c1nccc(OC)c1O [Example 167] | – | – | – | – | > 80 | > 80 | > 80 | > 80 |
| COc1ccnc(C(=O)N[C@@H](C)C(=O)O[C@@H](C)[C@H](Oc2ccc(F)cc2)c2ccc(C)cc2)c1OCOC(C)=O [Example 253] | > 80 | > 80 | > 80 | > 80 | – | – | – | – |
| COc1ccnc(C(=O)N[C@@H](C)C(=O)O[C@@H](C)[C@H](Oc2ccc(C)cc2)c2ccccc2)c1O [Example 151] | – | – | – | – | > 80 | < 80 | > 80 | > 80 |
| COc1ccnc(C(=O)N[C@@H](C)C(=O)O[C@@H](C)C(Oc2ccccc2)c2nccs2)c1OCOC(C)=O (stereo partly drawn) [Example 213] | < 0 | < 80 | > 80 | > 80 | – | – | – | – |
| COc1ccnc(C(=O)N[C@H](C(=O)O[C@@H](C)[C@H](Oc2ccc(C(F)(F)F)cc2)c2ccccc2)C(C)C)c1OCOC(C)=O [Example 197] | > 80 | < 0 | > 80 | < 80 | – | – | – | – |
| COc1ccnc(C(=O)N[C@@H](C)C(=O)O[C@@H](C)[C@H](Oc2ccccc2)c2ccc(F)cc2Oc2ccccc2)c1O [Example 178] | – | – | – | – | > 80 | > 80 | > 80 | < 80 |
| COc1ccnc(C(=O)N[C@@H](C)C(=O)O[C@@H](C)[C@@H](Oc2ccc(Cl)cc2Cl)c2ccccc2)c1OCOC(C)=O [Example 216] | > 80 | > 80 | > 80 | < 80 | – | – | – | – |
| COc1ccnc(C(=O)N[C@@H](C)C(=O)O[C@@H](C)[C@H](Oc2ccccc2)c2ccc(F)cc2Cl)c1O [Example 163] | – | – | – | – | > 80 | > 80 | > 80 | > 80 |
| CCCO[C@@H](c1ccccc1)[C@H](C)OC(=O)[C@H](C)NC(=O)c1nccc(OC)c1OC(C)=O [Example 227] | < 80 | > 80 | > 80 | > 80 | – | – | – | – |
| CC[C@H](NC(=O)c1nccc(OC)c1OC(C)=O)C(=O)O[C@@H](C)[C@H](Oc1cc(F)ccc1F)c1ccccc1 [Example 194] | < 80 | < 0 | > 80 | < 80 | – | – | – | – |
| COc1ccnc(C(=O)N[C@@H](C)C(=O)O[C@@H](C)[C@H](Oc2ccc(C)cc2)c2ccc(F)cc2)c1O [Example 152] | – | – | – | – | > 80 | > 80 | > 80 | > 80 |
| COc1ccnc(C(=O)N[C@@H](C)C(=O)O[C@@H](C)[C@H](Oc2ccccc2)c2ccc(F)cc2)c1O [Example 148] | – | – | – | – | < 80 | > 80 | > 80 | < 80 |
| COc1cc(F)ccc1[C@@H](OC(=O)C(C)(C)C)[C@H](C)OC(=O)[C@H](C)NC(=O)c1nccc(OC)c1O [Example 290] | – | – | – | – | > 80 | > 80 | > 80 | > 80 |
| COc1ccnc(C(=O)N[C@@H](C)C(=O)O[C@@H](C)[C@H](Oc2ccc(Cl)cc2Cl)c2ccccc2)c1O [Example 120] | – | – | – | – | > 80 | < 80 | > 80 | < 80 |
| COc1ccnc(C(=O)N[C@@H](C)C(=O)O[C@@H](C)[C@H](Oc2ccc(C)cc2)c2ccc(F)cc2)c1OCOC(C)=O [Example 249] | > 80 | > 80 | > 80 | > 80 | – | – | – | – |
| COc1ccnc(C(=O)N[C@@H](C)C(=O)O[C@@H](C)[C@H](Oc2cc(F)ccc2F)c2ccccc2)c1OC(C)=O [Example 192] | > 80 | < 80 | > 80 | > 80 | – | – | – | – |
| COc1ccnc(C(=O)N[C@@H](C)C(=O)O[C@H](C)[C@@H](Oc2ccccc2)c2ccccc2)c1O [Example 115] | – | – | – | – | < 0 | < 80 | < 0 | > 80 |
| COc1ccnc(C(=O)N[C@@H](C)C(=O)O[C@@H](C)C(Oc2ccccc2)c2nccs2)c1OC(C)=O (stereo partly drawn) [Example 212] | < 0 | < 80 | < 80 | > 80 | – | – | – | – |
| COc1ccnc(C(=O)N[C@H](C(=O)O[C@@H](C)[C@H](Oc2ccc(C(F)(F)F)cc2)c2ccccc2)C(C)C)c1O [Example 126] | – | – | – | – | < 0 | < 80 | < 80 | < 0 |
| COc1cc(C)ccc1[C@@H](Oc1ccccc1)[C@H](C)OC(=O)[C@H](C)NC(=O)c1nccc(OC)c1O [Example 172] | – | – | – | – | > 80 | > 80 | > 80 | > 80 |
| COc1ccnc(C(=O)N[C@@H](C)C(=O)O[C@@H](C)[C@H](Oc2cc(F)cc(Cl)c2)c2ccccc2)c1O [Example 122] | – | – | – | – | > 80 | > 80 | > 80 | > 80 |
| COc1ccnc(C(=O)N[C@H](C)C(=O)O[C@H](C)[C@@H](Oc2ccccc2)c2ccccc2)c1O [Example 116] | – | – | – | – | < 0 | < 80 | < 0 | < 0 |
| COc1ccnc(C(=O)N[C@@H](C)C(=O)O[C@@H](C)[C@@H](Oc2ccccc2)c2ccccc2)c1OC(C)=O [Example 217] | > 80 | > 80 | > 80 | < 80 | – | – | – | – |
